# Laboratory results as given in PMC9282634, “High-Throughput Crystallography Reveals Boron-Containing Inhibitors of a Penicillin-Binding Protein with Di- and Tricovalent Binding Modes” (Journal of Medicinal Chemistry, 2021).
# Like-named read-outs stand apart in the source and are kept apart here.
# Tests used:
# PBP3 (PaPBP3) [1] = target: T1, PBP3 (PaPBP3) (Pseudomonas aeruginosa, UniProt G3XD46); assay: biochemical; design: S2d thioester turnover with DTNB, absorbance 412 nm, residual activity after 1 h pre-incubation; conditions: read-out: Residual Activity by S2d Turnover (%)
# T1 construct: gene ftsI; residues 50–579
# T1 sequence (G3XD46 50-579): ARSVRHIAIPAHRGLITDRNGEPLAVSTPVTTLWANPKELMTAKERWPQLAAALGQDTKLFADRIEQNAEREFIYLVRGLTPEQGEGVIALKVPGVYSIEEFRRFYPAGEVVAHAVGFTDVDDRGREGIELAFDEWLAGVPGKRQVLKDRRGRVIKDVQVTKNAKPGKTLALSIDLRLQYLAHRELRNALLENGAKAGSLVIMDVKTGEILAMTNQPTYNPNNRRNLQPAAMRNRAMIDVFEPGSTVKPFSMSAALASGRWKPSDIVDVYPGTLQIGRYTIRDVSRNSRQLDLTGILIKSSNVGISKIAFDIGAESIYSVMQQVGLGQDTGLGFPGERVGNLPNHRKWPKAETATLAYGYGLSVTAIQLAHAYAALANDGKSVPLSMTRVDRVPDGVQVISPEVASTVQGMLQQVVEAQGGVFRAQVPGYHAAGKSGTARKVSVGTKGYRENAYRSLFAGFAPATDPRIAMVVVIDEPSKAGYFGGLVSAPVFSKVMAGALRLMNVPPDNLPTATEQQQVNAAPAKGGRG
# Procedure: Residual activities were measured by the ability of a potential inhibitor to hinder hydrolysis of the substrate analogue S2d (2-((benzoyl-D-alanyl)thio)acetic acid) turnover by PaPBP3 as described for other PBPs.[4],[24],[53],[54] Assays were conducted in 50 μL in a 384-well, clear-bottom, black-walled microplate (Greiner Bio-One). PaPBP3 (400 nM) was incubated with 2 mM of each compound for 1 h at 30 °C in 100 mM sodium phosphate, pH 7, supplemented with 0.01% (v/v) triton. A solution of 5,5′-dithiobis-(2-nitrobenzoic acid) and S2d diluted in the same buffer (to give a final concentration in the assay of 1 mM for both reagents) was added to each well to initiate the reaction. The final concentration of protein was 200 nM and the final inhibitor concentration was 1 mM. A ClarioStar plate reader (BMG Labtech) was used to follow the reaction by observing the change in absorbance at 412 nm at 30 °C. […] The initial rate of S2d turnover was calculated using GraphPad prism (Prism 8 for macOS, GraphPad Software LLC) and the standard error calculated from three independent technical replicates. The rate of non-enzymatic S2d hydrolysis was subtracted from each rate to find the corrected rate. For each compound, the ratio of the corrected rate to the untreated control corrected rate was expressed as a percentage to give the residual activity. [drawing 2] Table 1 Residual Activities and Kis of Compounds Tested in the BOCILLIN FL Competition Assay for Binding to PaPBP3 and Residual Activities Measured in S2d Turnover Assays ^a a For both BOCILLIN FL FA and S2d assays, residual activities in the presence of a 1 mM inhibitor are a percentage of the activity of the untreated control. Errors are standard errors (n = 3) from independent measurements. b Residual activity measured at 100 μM due to solubility issues at 1 mM. Ki, calculated with 11 concentrations of each compound and determined using global fitting in Kintek Global Explorer.[52],[59]
# PBP3 (PaPBP3) [2] = target: T1, PBP3 (PaPBP3); assay: biochemical; design: BOCILLIN FL fluorescence anisotropy, residual PBP3 binding after 1 h pre-incubation with compound; conditions: read-out: Residual Activity by BOCILLIN FL FA (%)
# Procedure: Unless otherwise stated, assays were run in triplicate using a 60 nM purified protein (see above), 30 nM BOCILLIN FL in pH 7 100 mM sodium phosphate buffer, with 0.01% Triton to reduce promiscuous ligand binding[23] and reduce binding of the protein to the plate. Assays were run in triplicate in a volume of 50 μL, in black, flat-bottom, 384-well microplates (Grenier Bio-One, Austria) at 30 °C. The change in FA was measured using a ClarioStar plate reader (BMG Labtech) with polarized filters at excitation: 482–16, emission: F: 530–4, and calculated using MARS software v3.32 (BMG Labtech) using the equation [drawing 1] where Fpara is the fluorescence intensity parallel to the excitation plane and Fperp is fluorescence intensity perpendicular to the excitation plane. Residual activities were determined by pre-incubating the test compound (1024 μM) and protein for 1 h at 30 °C before the reaction was initiated by the addition of BOCILLIN FL. The change in FA after 30 min was compared to the uninhibited control to determine the residual activity. In order to calculate Ki, the compound (at 11 concentrations: 1–1024 μM) and BOCILLIN FL were mixed and the reaction was initiated by the addition of PBP. Also included in the model were progress curves of nine concentrations of PBP (40–110 nM). Inhibition plots with meropenem and ceftazidime were done to ensure the correct parameters for BOCILLIN FL binding were used. Progress curves were analyzed with KinTek, USA, as described;[52],[69] reported errors represent the standard error. The acylation of a PBP by BOCILLIN FL (Figure S1) can be described by a simple one-step model.[52] However, unlike the previous studies, we found it was necessary to include a term (k2) to account for the deacylation of BOCILLIN FL to release a hydrolyzed product (Figure S1). The fluorescence intensity was constant throughout the reaction. Inhibitor binding was modeled as a reversible reaction to form the enzyme–inhibitor complex (Figure S1). Ki was calculated as the ratio of the off-rate koff to the on-rate kon (Figure S1). Table 1 Residual Activities and Kis of Compounds Tested in the BOCILLIN FL Competition Assay for Binding to PaPBP3 and Residual Activities Measured in S2d Turnover Assays ^a a For both BOCILLIN FL FA and S2d assays, residual activities in the presence of a 1 mM inhibitor are a percentage of the activity of the untreated control. Errors are standard errors (n = 3) from independent measurements. b Residual activity measured at 100 μM due to solubility issues at 1 mM. Ki, calculated with 11 concentrations of each compound and determined using global fitting in Kintek Global Explorer.[52],[59]
# PBP3 (PaPBP3) [3] = target: T1, PBP3 (PaPBP3); assay: crystal structure; BOCILLIN FL fluorescence anisotropy competition (Ki); assay type: biochemical
# PBP3 (PaPBP3) [4] = target: T1, PBP3 (PaPBP3); assay: biochemical; design: BOCILLIN FL competition fluorescence anisotropy, progress curves globally fitted in KinTek to reversible one-step model; conditions: BOCILLIN FL competition
# Procedure: Unless otherwise stated, assays were run in triplicate using a 60 nM purified protein (see above), 30 nM BOCILLIN FL in pH 7 100 mM sodium phosphate buffer, with 0.01% Triton to reduce promiscuous ligand binding[23] and reduce binding of the protein to the plate. Assays were run in triplicate in a volume of 50 μL, in black, flat-bottom, 384-well microplates (Grenier Bio-One, Austria) at 30 °C. The change in FA was measured using a ClarioStar plate reader (BMG Labtech) with polarized filters at excitation: 482–16, emission: F: 530–4, and calculated using MARS software v3.32 (BMG Labtech) using the equation [drawing 1] where Fpara is the fluorescence intensity parallel to the excitation plane and Fperp is fluorescence intensity perpendicular to the excitation plane. Residual activities were determined by pre-incubating the test compound (1024 μM) and protein for 1 h at 30 °C before the reaction was initiated by the addition of BOCILLIN FL. […] Progress curves were analyzed with KinTek, USA, as described;[52],[69] reported errors represent the standard error. […] The fluorescence intensity was constant throughout the reaction. […] Ki was calculated as the ratio of the off-rate koff to the on-rate kon (Figure S1). 1–15 were screened for PaPBP3 inhibition at 1 mM using an established fluorescence anisotropy (FA) assay.[52] […]
SMILES,remaining activity at 1000 µM (PBP3 (PaPBP3) [1]),remaining activity at 1000 µM (PBP3 (PaPBP3) [2]),Ki (PBP3 (PaPBP3) [3]),Ki (PBP3 (PaPBP3) [4])
O=C(O)c1ccc2c(c1)B(O)OC2 [compound 3],57.8 ± 0.6%,75 ± 1%,–,–
CNC(=O)CNC(=O)c1ccc2c(c1)B(O)OC2 [compound 5],> 90%,> 90%,–,–
NC(=O)[C@@H](Cc1ccccc1)NC(=O)c1ccc2c(c1)B(O)OC2 [compound 6],> 90%,> 90%,–,–
COC(=O)[C@H](NC(=O)c1ccc2c(c1)B(O)OC2)c1ccccc1 [compound 7],> 90%,> 90%,–,–
O=C1CN(C(=O)[C@@H](Cc2ccccc2)NC(=O)c2ccc3c(c2)B(O)OC3)CCN1 [compound 11],80.9 ± 1.3%,84 ± 1%,–,–
"NC(=O)[C@H](NC(=O)c1ccc2c(c1)B(O)OC2CC(=O)O)c1ccccc1 (some centres unmarked) [compound 12, 12]",19.6 ± 0.4%,16 ± 6%,73.9 ± 0.8 µM,–
"CN1CCN(C(=O)CNC(=O)c2ccc3c(c2)B(O)OC3CC(=O)O)CC1=O (centres unmarked) [compound 13, 13]",47.5 ± 0.6%,42 ± 6%,172 ± 3 µM,–
"O=C(O)CC1OB(O)c2ccc(OCc3ccccc3)cc21 (centres unmarked) [compound 15, 2-(5-(Benzyloxy)-1-hydroxy-1,3-dihydrobenzo[c][1,2]oxaborol-3-yl)acetic Acid]",–,–,78.1 ± 0.9 µM,–
O=C(O)C[C@@H]1CC[C@H](NC(=O)Cc2cccs2)B(O)O1 [vaborbactam],75.8 ± 0.7%,54 ± 5%,–,201 ± 2.3 µM
